# Data published in patent US20050033056A1, “Hydroxylated indole derivatives and uses thereof” (priority 2001, published 2005).
# Target: CYP3A4 (Homo sapiens, UniProt P08684)
# Assay: CYP inhibition in HLM: R-warfarin 10-hydroxylation
# Type: in vitro ADME
# Set-up: tissue Gentest Corp. (Woburn, Mass.); host or cells: pooled human liver microsomes
# Conditions: 10 or 50 μM
# Description: The incubations were carried out in test tubes (12.0×75 mm). The incubation mixtures (250 μL) contained 0.5 mg of HLM protein, 50 (CYP1A2 and CYP2E1) or 25 (CYP2C9, CYP2C19, CYP2D6 and CYP3A4) pmol of recombinant human CYPs, Compound 1 (10 or 50 μM), probe substrate (R—, S-warfarin, chlorzoxazone, S-mephenyloin, or bufuralol) at different concentrations, and 0.5 mg of NADPH in 50 mM Tris buffer containing 15 mM MgCl2 (pH 7.4). Compound 1 was added to the reaction mixture 5 minutes prior to the addition of the probe substrate. […]
# The quantification was based on the calibration curves, and the quality control (QC) samples were applied to ensure the quality of the experiments. […]
# 1. CYP1A2/2C9/3A4-mediated warfarin 6-, 7-, 8-, and 10-hydroxylation (Zhang et al., Drug Metab. Dispos. 23:1339-1346, 1995; Rettie et al., Chem. Res. Toxicol. 5:54-59, 1992; Brian et al., Biochemistry 29:11280-11292, 1990): Hewlett Packard 1100 HPLC system (Waldbronn, Germany) comprised a binary pump, an autosampler, a column compartment unit, a photodiode array detector (PDA), and a fluorescence detector. […] The warfarin metabolites, 6-, 8-, and 10-hydroxywarfarin, were monitored by UV at 313 nm, and 7-hydroxywarfarin by fluorescence at Ex320 nm/Em380 nm. […]
# CYP3A4, sequence (P08684 whole entry): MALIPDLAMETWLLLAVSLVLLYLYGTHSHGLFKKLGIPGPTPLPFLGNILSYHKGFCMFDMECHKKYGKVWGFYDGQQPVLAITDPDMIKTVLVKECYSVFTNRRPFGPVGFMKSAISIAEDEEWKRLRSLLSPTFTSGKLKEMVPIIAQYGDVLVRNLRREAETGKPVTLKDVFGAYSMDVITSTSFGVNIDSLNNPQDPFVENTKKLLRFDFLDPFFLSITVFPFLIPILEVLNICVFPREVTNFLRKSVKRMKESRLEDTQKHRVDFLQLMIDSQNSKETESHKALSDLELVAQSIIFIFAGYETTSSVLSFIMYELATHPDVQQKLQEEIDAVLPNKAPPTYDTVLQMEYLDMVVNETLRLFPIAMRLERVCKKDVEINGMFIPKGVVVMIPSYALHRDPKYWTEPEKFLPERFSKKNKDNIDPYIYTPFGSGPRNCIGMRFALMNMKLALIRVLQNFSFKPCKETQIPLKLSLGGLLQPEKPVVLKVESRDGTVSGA
structure (smiles),measurement,value
"CNC(=O)Cc1ccc2ccn(C3CCN(CCc4ccccc4F)CC3)c2c1 [Compound 1, N-methyl-[1-[1-(2-fluorophenethyl)piperidine-4-yl]-1H-indol-6-yl] acetamide]",inhibitory effect on CYP3A4 activity (in words),no inhibitory effect
